This note sets out measurements from patent US11191762B2, “Alkyl substituted triazole compounds as agonists of the APJ Receptor” (priority 2016, dated 2021).

Molecules are shown by their SMILES.

Chain of human APJ receptor (P35414 whole entry): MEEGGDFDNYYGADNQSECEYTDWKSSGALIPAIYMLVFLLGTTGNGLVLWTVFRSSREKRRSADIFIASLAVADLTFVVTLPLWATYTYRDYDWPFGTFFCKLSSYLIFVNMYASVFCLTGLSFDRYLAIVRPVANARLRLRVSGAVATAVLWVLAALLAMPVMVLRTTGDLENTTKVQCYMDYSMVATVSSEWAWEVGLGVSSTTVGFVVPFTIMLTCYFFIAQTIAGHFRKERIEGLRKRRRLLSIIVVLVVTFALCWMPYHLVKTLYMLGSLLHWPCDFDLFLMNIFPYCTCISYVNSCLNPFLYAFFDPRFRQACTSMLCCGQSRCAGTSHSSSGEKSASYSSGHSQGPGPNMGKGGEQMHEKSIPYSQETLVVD

The first assay has as its target human APJ receptor (Homo sapiens (Human), UniProt P35414). The experiment in a line: biochemical. Type of assay: biochemical. To be noted: [35S]GTPγS binding, membranes from CHO cells stably expressing human APJ receptor; read-out: Activity hAPJ SPA EC50 IP. As to the method: The human APJ receptor was cloned by polymerase chain reaction and the gene encoding the receptor was subcloned in pFLAG-CMV™-3 expression vector (Sigma, Saint Louis, Mo. USA) in-house at Amgen. A GTPγS binding assay was performed on membranes prepared from CHO cells stably expressing human APJ receptor. The optimum experimental conditions for the concentrations of GDP, MgCl2, and NaCl in the assay buffer were initially determined. The assay was performed in 9 μL assay buffer [20 mM HEPES, pH 7.5, 5 mM MgCl2, 100 mM NaCl and 0.1% (w/v) BSA], 1 μL of diluted test compound (starting with 0.75 mM, 2-fold serial dilution with DMSO, total 22 points), 10 μL of 18 µM GDP (final concentration of 3 μM GDP), 20 μL of […] membrane protein expressing human APJ receptor captured with WGA PS beads (final concentration of 5 μg per well), and 20 μL of 0.3 nM [^35S]GTPγS (final concentration is 0.1 nM [^35S]GTPγS)(Perkin Elmer Life and Analytical Sciences, Waltham USA).
Turning to `COc1ncnc(OC)c1-n1c(CC2CCC2)nnc1NS(=O)(=O)[C@@H](C)[C@H](OC)c1ncc(Cl)cn1` [Example 24.0, (1R,2S)-1-(5-chloro-2-pyrimidinyl)-N-(5-(cyclobutylmethyl)-4-(4,6-dimethoxy-5-pyrimidinyl)-4H-1,2,4-triazol-3-yl)-1-methoxy-2-propanesulfonamide], the EC50 (commonly the midpoint of the concentration-response curve) came out at 1.5 nM.
Take `COCc1nnc(NS(=O)(=O)[C@@H](C)[C@H](OC)c2ncc(Cl)cn2)n1C1(c2cccnc2)CC1` [Example 140.0, (1R,2S)-1-(5-chloropyrimidin-2-yl)-1-methoxy-N-(5-(methoxymethyl)-4-(1-(pyridin-3-yl)cyclopropyl)-4H-1,2,4-triazol-3-yl)propane-2-sulfonamide]: the EC50 was 29 nM.
Still for that read-out and setting: the same measure for `COc1ncnc(OC)c1-n1c(NS(=O)(=O)[C@@H](C)[C@H](O)c2ncc(C)cn2)nnc1C(C)(C)c1ccccc1` [Example 138.0]: 860 nM; for `CCCCc1nnc(NS(=O)(=O)[C@@H](C)[C@H](C)c2ncc(C)cn2)n1-c1c(OC)cccc1OC` [Example 176.0]: 1.9 nM; for `COc1ncnc(OC)c1-n1c(NS(=O)(=O)[C@@H](C)[C@H](C)c2ncc(Cl)cn2)nnc1[C@@H](C)OC` (single isomer, unassigned) [Example 4.0, (2S,3R)-3-(5-chloro-2-pyrimidinyl)-N-(4-(4,6-dimethoxy-5-pyrimidinyl)-5-((1R)-1-methoxyethyl)-4H-1,2,4-triazol-3-yl)-2-butanesulfonamide or (2S,3R)-3-(5-chloro-2-pyrimidinyl)-N-(4-(4,6-dimethoxy-5-pyrimidinyl)-5-((1S)-1-methoxyethyl)-4H-1,2,4-triazol-3-yl)-2-butanesulfonamide]: 270 nM.
As for `COCc1nnc(NS(=O)(=O)[C@@H](C)[C@H](OC)c2ncc(Cl)cn2)n1-c1c(F)cccc1F` [Example 131.0], the EC50 was 20 nM.
As for `COc1ncnc(OC)c1-n1c(CC2COC2)nnc1NS(=O)(=O)[C@@H](C)[C@H](C)c1ncc(Cl)cn1` [Example 33.0, (2S,3R)-3-(5-chloro-2-pyrimidinyl)-N-(4-(4,6-dimethoxy-5-pyrimidinyl)-5-(3-oxetanylmethyl)-4H-1,2,4-triazol-3-yl)-2-butanesulfonamide], the EC50 turned out to be 210 nM.
For `COc1cccc(OC)c1-n1c(Cc2ccsc2)nnc1NS(=O)(=O)[C@@H](C)[C@H](C)c1ncc(Cl)cn1` [Example 38.0, (2S,3R)-3-(5-chloro-2-pyrimidinyl)-N-(4-(2,6-dimethoxyphenyl)-5-(3-thiophenylmethyl)-4H-1,2,4-triazol-3-yl)-2-butanesulfonamide], the EC50 stood at 6 nM.
`COc1cccc(OC)c1-n1c(Cc2cccs2)nnc1NS(=O)(=O)[C@@H](C)[C@H](C)c1ncc(Cl)cn1` [Example 43.0, (2S,3R)-3-(5-chloro-2-pyrimidinyl)-N-(4-(2,6-dimethoxyphenyl)-5-(2-thiophenylmethyl)-4H-1,2,4-triazol-3-yl)-2-butanesulfonamide]: the EC50 was 2.7 nM.
`COc1cccc(OC)c1-n1c(C[C@@H]2CCS(=O)(=O)C2)nnc1NS(=O)(=O)[C@@H](C)[C@H](C)c1ncc(Cl)cn1` (mixture of isomers) [Example 47.0, (2S,3R)-3-(5-chloro-2-pyrimidinyl)-N-(4-(2,6-dimethoxyphenyl)-5-(((3R)-1,1-dioxidotetrahydro-3-thiophenyl)methyl)-4H-1,2,4-triazol-3-yl)-2-butanesulfonamide and (2S,3R)-3-(5-chloro-2-pyrimidinyl)-N-(4-(2,6-dimethoxyphenyl)-5-(((3S)-1,1-dioxidotetrahydro-3-thiophenyl)methyl)-4H-1,2,4-triazol-3-yl)-2-butanesulfonamide]: the concentration giving a half-maximal response (EC50) was determined as 70 nM.
On to `COc1cccc(OC)c1-n1c(C)nnc1NS(=O)(=O)[C@@H](C)[C@H](OC)c1ncc(C)cn1` [Example 26.0, (1R,2S)-N-(4-(2,6-dimethoxyphenyl)-5-methyl-4H-1,2,4-triazol-3-yl)-1-methoxy-1-(5-methylpyrimidin-2-yl)propane-2-sulfonamide], for which the EC50 was found to be 120 nM.
As for `COc1ncnc(OC)c1-n1c(NS(=O)(=O)[C@@H](C)[C@H](C)c2ncc(Cl)cn2)nnc1[C@@H](C)OC` (single isomer, unassigned) [Example 5.0, (2S,3R)-3-(5-chloro-2-pyrimidinyl)-N-(4-(4,6-dimethoxy-5-pyrimidinyl)-5-((1R)-1-methoxyethyl)-4H-1,2,4-triazol-3-yl)-2-butanesulfonamide or (2S,3R)-3-(5-chloro-2-pyrimidinyl)-N-(4-(4,6-dimethoxy-5-pyrimidinyl)-5-((1S)-1-methoxyethyl)-4H-1,2,4-triazol-3-yl)-2-butanesulfonamide], the EC50 is 310 nM.
Take `CO[C@H](c1ncc(Cl)cn1)[C@H](C)S(=O)(=O)Nc1nnc(C)n1C1(C)CC1` [Example 55.0, (1R,2S)-1-(5-chloropyrimidin-2-yl)-1-methoxy-N-(5-methyl-4-(1-methylcyclopropyl)-4H-1,2,4-triazol-3-yl)propane-2-sulfonamide]: the concentration for a half-maximal effect (EC50) stood at 540 nM.
Take `COCc1nnc(NS(=O)(=O)[C@@H](C)[C@H](OC)c2ncc(Cl)cn2)n1C1(COC)CC1` [Example 145.0]: the half-maximal effective concentration (EC50) came out at 240 nM.
Consider `COc1cccc(OC)c1-n1c(CN2CCCCCC2=O)nnc1NS(=O)(=O)[C@@H](C)[C@H](OC)c1ncc(C)cn1` [Example 52.0], for which the EC50 turned out to be 650 nM.
As for `COc1cccc(OC)c1-n1c(NS(=O)(=O)[C@@H](C)[C@H](C)c2ncc(C)cn2)nnc1[C@H](OC)c1ccccc1` [Example 18.0, (2S,3R)-N-(4-(2,6-dimethoxyphenyl)-5-((R)-methoxy(phenyl)methyl)-4H-1,2,4-triazol-3-yl)-3-(5-methyl-2-pyrimidinyl)-2-butanesulfonamide], the EC50 stood at 240 nM.
For the compound `COc1cccc(OC)c1-n1c(Cc2ccc(F)cc2)nnc1NS(=O)(=O)[C@@H](C)[C@H](OC)c1ncc(C)cn1` [Example 50.0], the EC50 was 940 nM.
Regarding `COc1cccc(OC)c1-n1c(NS(=O)(=O)[C@@H](C)[C@H](C)c2ncc(Cl)cn2)nnc1C(F)(F)c1ccccn1` [Example 136.0], the EC50 came to 35 nM.
Consider `COc1ncnc(OC)c1-n1c(COCC(F)(F)F)nnc1NS(=O)(=O)[C@@H](C)[C@H](OC)c1ncc(Cl)cn1` [Example 135.0, (1R,2S)-1-(5-chloro-2-pyrimidinyl)-N-(4-(4,6-dimethoxy-5-pyrimidinyl)-5-((2,2,2-trifluoroethoxy)methyl)-4H-1,2,4-triazol-3-yl)-1-methoxy-2-propanesulfonamide], for which the EC50 was 40 nM.
On to `COc1ncnc(OC)c1-n1c(COC(F)F)nnc1NS(=O)(=O)[C@@H](C)[C@H](C)c1ncc(Cl)cn1` [Example 127.0, (2S,3R)-3-(5-chloropyrimidin-2-yl)-N-(5-((difluoromethoxy)methyl)-4-(4,6-dimethoxypyrimidin-5-yl)-4H-1,2,4-triazol-3-yl)butane-2-sulfonamide], for which the EC50 came out at 38 nM.
`COc1ncnc(OC)c1-n1c(COC(C)C)nnc1NS(=O)(=O)[C@@H](C)[C@H](C)c1ncc(Cl)cn1` [Example 80.0, (2S,3R)-3-(5-chloropyrimidin-2-yl)-N-(4-(4,6-dimethoxypyrimidin-5-yl)-5-(isopropoxymethyl)-4H-1,2,4-triazol-3-yl)butane-2-sulfonamide]: the EC50 amounted to 2.4 nM.
For the compound `COCc1nnc(NS(=O)(=O)[C@@H](C)[C@H](C)c2ncc(OC)cn2)n1-c1c(OC)cccc1OC` [Example 130.0], the EC50 stood at 12 nM.
For `COCc1nnc(NS(=O)(=O)[C@@H](C)[C@@H](OC(C)C)c2ncc(C)cn2)n1-c1c(F)cccc1F` [Example 30.0, (1S,2S)-N-(4-(2,6-difluorophenyl)-5-(methoxymethyl)-4H-1,2,4-triazol-3-yl)-1-(1-methylethoxy)-1-(5-methyl-2-pyrimidinyl)-2-propanesulfonamide], the EC50 amounted to 240 nM.
Same read-out and setting: the same measure for `COc1cccc(OC)c1-n1c(CC2COC2)nnc1NS(=O)(=O)[C@@H](C)[C@H](C)c1ncc(Cl)cn1` [Example 34.0, (2S,3R)-3-(5-chloro-2-pyrimidinyl)-N-(4-(2,6-dimethoxyphenyl)-5-(3-oxetanylmethyl)-4H-1,2,4-triazol-3-yl)-2-butanesulfonamide]: 16 nM.

The same assay, now with this note: read-out: Activity hAPJ SPA EC50 IP.
Take `COCc1nnc(NS(=O)(=O)[C@@H](C)[C@H](OC)c2ccc(Cl)cn2)n1-c1c(OC)cccc1OC` [Example 76.0, (1R,2S)-1-(5-chloropyridin-2-yl)-N-(4-(2,6-dimethoxyphenyl)-5-(methoxymethyl)-4H-1,2,4-triazol-3-yl)-1-methoxypropane-2-sulfonamide]: the EC50 came out at 4.8 nM.
As for `COCc1nnc(NS(=O)(=O)[C@@H](C)[C@@H](OC(C)C)c2ncc(F)cn2)n1-c1c(OC)cccc1OC` [Example 154.0], the EC50 was determined as 6.6 nM.
On the same count and under the same terms, the figure for `COc1cccc(OC)c1-n1c(COC(C)C)nnc1NS(=O)(=O)[C@@H](C)[C@H](C)c1ncc(Cl)cn1` [Example 161.0] is 2.2 nM; for `COCc1nnc(NS(=O)(=O)[C@@H](C)[C@H](C)c2ncc(F)cn2)n1-c1c(OC)cccc1OC` [Example 68.0, (2S,3R)-N-(4-(2,6-dimethoxyphenyl)-5-(methoxymethyl)-4H-1,2,4-triazol-3-yl)-3-(5-fluoropyrimidin-2-yl)butane-2-sulfonamide] it is 33 nM.
Regarding `CCCCc1nnc(NS(=O)(=O)[C@@H](C)[C@H](OC)c2ncc(Cl)cn2)n1-c1c(OC)cccc1OC` [Example 174.0], the EC50 turned out to be 0.3 nM.
